Reference: PMC8209673 (Cell reports, 2021)
Where two headings read alike, the source gives them in different places.

Key:
[1] = tested on: differentiated human ALS motor neurons; assay: Fura-2 calcium response imaging; assay type: cell-based; conditions: fura-2 imaging
SOD1(A4V) motor neurons [2] = assay: Multiple electrode array; assay type: cell-based, human; conditions: for SOD1(A4V) motor neuron excitability: DRD2/3 agonists, MEA (Figure 4C)
[3] = tested on: SOD1(A4V) ALS motor neurons; assay type: cell-based, human
[4] = tested on: lower motor neuron hyperexcitability; conditions: two clinical trials; ref Kovalchuk et al., 2018; Wainger et al., 2021; cited from earlier work
[5] = tested on: human motor neurons carrying SOD1, C9ORF72, and FUS mutations; conditions: ref Wainger et al., 2014; cited from earlier work
DRD3 = conditions: cited from earlier work
DRD2 = conditions: ref McCall et al., 2005; cited from earlier work
SOD1(A4V) motor neurons [6] = assay: Patch clamp current-clamp recording of spontaneous firing; assay type: cell-based, human
patients with ALS = conditions: small-scale clinical trial; ref Nagata et al., 2016; cited from earlier work
[7] = activity normalized to the DMSO control (100.00)
[8] = calcium wave count normalized to the DMSO control (100.00)

Cc1o[nH]c(=O)c1C[C@H](N)C(=O)O [AMPA]
calcium influx [1]: elicits a large calcium influx

O=C(Nc1ccc(Cl)nc1)c1ccc(F)c(F)c1 [ICA-27243]
MEA (%) spontaneous motor neuron activity (SOD1(A4V) motor neurons [2]; [7]): 0.20 ± 0.1% | GCaMP6 (%) spontaneous motor neuron activity [3, 8]: 0.00 ± 0.0%

O=C1Nc2c(ccc(Cl)c2Cl)C1=NO [NS309]
MEA (%) spontaneous motor neuron activity (SOD1(A4V) motor neurons [2]): 86.56 ± 14.4% | GCaMP6 (%) spontaneous motor neuron activity [3, 8]: 110.00 ± 38.4%

O=C(Nc1cnc(Cl)nc1)c1ccc(F)c(F)c1 [ICA 069673]
MEA (%) spontaneous motor neuron activity (SOD1(A4V) motor neurons [2]): 0.07 ± 0.0% | GCaMP6 (%) spontaneous motor neuron activity [3, 8]: 13.33 ± 13.9%

O=C1NC(=O)C(c2ccccc2)(c2ccccc2)N1 [Phenytoin]
MEA (%) spontaneous motor neuron activity (SOD1(A4V) motor neurons [2]; [7]): 103.78 ± 41.1% | GCaMP6 (%) spontaneous motor neuron activity [3, 8]: 116.67 ± 56.5%

Nc1nc2c(ccc3ccccc32)s1 [SKA 31]
MEA (%) spontaneous motor neuron activity (SOD1(A4V) motor neurons [2]): 106.67 ± 44.4% | GCaMP6 (%) spontaneous motor neuron activity [3, 8]: 123.33 ± 60.8%

CCOC(=O)Nc1ccc(NCc2ccc(F)cc2)cc1N [retigabine]
lower motor neuron hyperexcitability in patients with ALS [4]: decreased lower motor neuron hyperexcitability | firing of human motor neurons [5]: block firing

CN[C@@H]1Cc2cccc3[nH]c(=O)n(c23)C1 [sumanirole]
SOD1(A4V) motor neuron excitability (SOD1(A4V) motor neurons [2]): decreased SOD1(A4V) motor neuron excitability | Ki (DRD3): 1940 nM | Ki (DRD2): 2 nM | membrane potential change (SOD1(A4V) motor neurons [6]; patch clamp, accompanying the decrease in firing): slight hyperpolarization | firing frequency (SOD1(A4V) motor neurons [6]; patch clamp, sumanirole 10 μM perfusion, control neurons): decrease in firing frequency | reduced excitability in DRD2 knockdown motor neurons (SOD1(A4V) motor neurons [6]; shRNA-mediated DRD2 knockdown, sumanirole 10 μM): insensitive

Cc1cc(NC2CCCCC2)nc(-n2nc(C)cc2C)n1 [CyPPA (NS6277)]
MEA (%) spontaneous motor neuron activity (SOD1(A4V) motor neurons [2]): 12.72 ± 5.8% | GCaMP6 (%) spontaneous motor neuron activity [3, 8]: 80.00 ± 27.4%

COCC(=O)O[C@]1(CCN(C)CCCc2nc3ccccc3[nH]2)CCc2cc(F)ccc2[C@@H]1C(C)C [Mibefradil]
MEA (%) spontaneous motor neuron activity (SOD1(A4V) motor neurons [2]): 0.02± 0.0% | GCaMP6 (%) spontaneous motor neuron activity [3, 8]: 0.00 ± 0.0%

CCn1c(=O)[nH]c2ccccc21 [1-Ebio (SB-423901)]
MEA (%) spontaneous motor neuron activity (SOD1(A4V) motor neurons [2]): 122.81 ± 27.8% | GCaMP6 (%) spontaneous motor neuron activity [3, 8]: 103.33 ± 21.7%

CCOC(=O)Nc1ccc(NCc2ccc(F)cc2)nc1N [flupirtine]
firing of human motor neurons [5]: block firing

Cc1cc(C)c(NC(=O)C2CC3CCC2C3)c(C)c1 (stereo not shown) [ML213]
MEA (%) spontaneous motor neuron activity (SOD1(A4V) motor neurons [2]): 0.38 ± 0.4% | GCaMP6 (%) spontaneous motor neuron activity [3, 8]: 0.00 ± 0.0%

CC(C)C[C@H]1C(=O)N2CCC[C@H]2[C@]2(O)O[C@](NC(=O)[C@@H]3C=C4c5cccc6[nH]c(Br)c(c56)C[C@H]4N(C)C3)(C(C)C)C(=O)N12 [bromocriptine]
SOD1(A4V) motor neuron excitability (SOD1(A4V) motor neurons [2]): decreased SOD1(A4V) motor neuron excitability | motor function in patients with ALS (patients with ALS): sustained motor function

CN(C)C(=O)C(CCN1CCC(O)(c2ccc(Cl)cc2)CC1)(c1ccccc1)c1ccccc1 [Loperamide]
MEA (%) spontaneous motor neuron activity (SOD1(A4V) motor neurons [2]): 0.02 ± 0.0% | GCaMP6 (%) spontaneous motor neuron activity [3]: 0.00± 0.0%

COc1ccc(Cl)cc1[C@]1(F)C(=O)Nc2cc(C(F)(F)F)ccc21 [Maxipost (BMS-204352)]
MEA (%) spontaneous motor neuron activity (SOD1(A4V) motor neurons [2]): 22.32 ± 1.1% | GCaMP6 (%) spontaneous motor neuron activity [3, 8]: 36.67 ± 39.8%
